Data reported in ChEMBL document CHEMBL1201862, “PubChem BioAssay data set” (2004).
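Method: 48-hour compound exposure of cells in 96-well plates, five concentrations, linear interpolation of endpoints. GI50 is the concentration that inhibits growth by half.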 Active and inactive are the calls of the source. No stated cut-off is given here; in the data, active = GI50 up to about 1.1 µM and inactive = higher.

Columns and labels:
Test in all cases: inhibition of tumour cell growth, NCI panel, 48 h
HCT-116 = tested on: HCT-116
HCT-15 = tested on: HCT-15
HT-29 = tested on: HT-29
M14 = tested on: M14
MCF7 = tested on: MCF7
MDA-N = tested on: MDA-N
MOLT-4 = tested on: MOLT-4
NCI-H522 = tested on: NCI-H522
OVCAR-8 = tested on: OVCAR-8
SF-295 = tested on: SF-295
SN12C = tested on: SN12C
UACC-62 = tested on: UACC-62
A498 = tested on: A498
CAKI-1 = tested on: CAKI-1
CCRF-CEM = tested on: CCRF-CEM
K562 = tested on: K562
KM12 = tested on: KM12
RPMI-8226 = tested on: RPMI-8226
RXF 393 = tested on: RXF 393
SK-MEL-28 = tested on: SK-MEL-28

| SMILES | GI50 (HCT-116) | GI50 (HCT-15) | GI50 (HT-29) | GI50 (M14) | GI50 (MCF7) | GI50 (MDA-N) | GI50 (MOLT-4) | GI50 (NCI-H522) | GI50 (OVCAR-8) | GI50 (SF-295) | GI50 (SN12C) | GI50 (UACC-62) | GI50 (A498) | GI50 (CAKI-1) | GI50 (CCRF-CEM) | GI50 (K562) | GI50 (KM12) | GI50 (RPMI-8226) | GI50 (RXF 393) | GI50 (SK-MEL-28) |
| --- | --- | --- | --- | --- | --- | --- | --- | --- | --- | --- | --- | --- | --- | --- | --- | --- | --- | --- | --- | --- |
| CC(C)(C)[Si](C)(C)OCC1OC(n2ccc(N)nc2=O)C(O[Si](C)(C)C(C)(C)C)C1O[Si](C)(C)C(C)(C)C (configuration not stated) | 3.14 µM (inactive) | 2.23 µM | 1.56 µM (inactive) | 1.8 µM (inactive) | 2.14 µM (inactive) | 3.89 µM (inactive) | 1.47 µM (inactive) | 1.83 µM (inactive) | 2.33 µM (inactive) | 1.74 µM (inactive) | 3.65 µM (inactive) | 1.94 µM (inactive) | – | – | – | – | – | – | – | – |
| CCCCCCCCC[C@@H]1C[C@@H]2CCC3C(C(=O)OCCCCNC(=O)OCc4ccccc4)=C(C)N=C(N1)N32 (some centres not stated) | 3.11 µM (inactive) | 2.81 µM | 3.29 µM (inactive) | 2.55 µM (inactive) | 1.94 µM (inactive) | – | 2.59 µM (inactive) | 2.52 µM (inactive) | 2.58 µM (inactive) | 3.44 µM (inactive) | 3.13 µM (inactive) | 3.44 µM (inactive) | 4.66 µM (inactive) | 3.62 µM (inactive) | 2.52 µM (inactive) | 1.77 µM (inactive) | 3.13 µM (inactive) | 2.13 µM (inactive) | 2.55 µM (inactive) | 3.61 µM (inactive) |
| N=C(N)N/N=C/c1c(-c2cccc([N+](=O)[O-])c2)nc2n1CCS2 | 20.5 µM (inactive) | 33.1 µM | 15.7 µM (inactive) | 24.4 µM (inactive) | 11 µM (inactive) | – | 11.4 µM (inactive) | 16.3 µM (inactive) | 16.7 µM (inactive) | 26.2 µM (inactive) | 22.7 µM (inactive) | 17.9 µM (inactive) | 17 µM (inactive) | 31.7 µM (inactive) | 22.2 µM (inactive) | 11.2 µM (inactive) | 18.4 µM (inactive) | 34.9 µM (inactive) | 19.3 µM (inactive) | 19.8 µM (inactive) |
| CC(=O)N1c2cc(/N=N/N(C)C)ccc2NC(=O)CC1C (configuration not stated) | > 100 µM (inactive) | > 100 µM | > 100 µM (inactive) | > 100 µM (inactive) | > 100 µM (inactive) | > 100 µM (inactive) | > 100 µM (inactive) | > 100 µM (inactive) | > 100 µM (inactive) | > 100 µM (inactive) | > 100 µM (inactive) | > 100 µM (inactive) | – | > 100 µM (inactive) | > 100 µM (inactive) | > 100 µM (inactive) | > 100 µM (inactive) | > 100 µM (inactive) | > 100 µM (inactive) | > 100 µM (inactive) |
| C(=N\c1ccc(-c2nc3ccccc3s2)cc1)/c1cccs1 | 52.1 µM (inactive) | 40.6 µM | 52.4 µM (inactive) | 69 µM (inactive) | – | 39.4 µM (inactive) | 27 µM (inactive) | 32.1 µM (inactive) | 49.2 µM (inactive) | 23.2 µM (inactive) | 40.6 µM (inactive) | 42 µM (inactive) | 25.1 µM (inactive) | 38.5 µM (inactive) | 0.617 µM (active) | 34.8 µM (inactive) | 40.1 µM (inactive) | 33.4 µM (inactive) | 27.5 µM (inactive) | > 100 µM (inactive) |
| CNC(=O)N(CCC#N)[C@H]1CCCC[C@@H]1N(C(=O)NC)c1ccccc1 | > 100 µM (inactive) | > 100 µM | > 100 µM (inactive) | > 100 µM (inactive) | > 100 µM (inactive) | > 100 µM (inactive) | > 100 µM (inactive) | > 100 µM (inactive) | > 100 µM (inactive) | > 100 µM (inactive) | > 100 µM (inactive) | > 100 µM (inactive) | – | > 100 µM (inactive) | > 100 µM (inactive) | > 100 µM (inactive) | > 100 µM (inactive) | > 100 µM (inactive) | > 100 µM (inactive) | > 100 µM (inactive) |
| CCOC(=O)CC1(N)CC2c3ccccc3OC(=O)C2C(=O)N1 (configuration not stated) | > 100 µM (inactive) | > 100 µM | > 100 µM (inactive) | > 100 µM (inactive) | – | > 100 µM (inactive) | > 100 µM (inactive) | > 100 µM (inactive) | > 100 µM (inactive) | – | > 100 µM (inactive) | > 100 µM (inactive) | > 100 µM (inactive) | > 100 µM (inactive) | > 100 µM (inactive) | > 100 µM (inactive) | > 100 µM (inactive) | > 100 µM (inactive) | > 100 µM (inactive) | > 100 µM (inactive) |
| CO/N=C/c1c(-c2ccc(Cl)cc2)c(/C=N/OC)n2c1sc1ccccc12 | > 100 µM (inactive) | > 100 µM | 81.8 µM (inactive) | – | > 100 µM (inactive) | > 100 µM (inactive) | 45.5 µM (inactive) | > 100 µM (inactive) | > 100 µM (inactive) | > 100 µM (inactive) | > 100 µM (inactive) | > 100 µM (inactive) | – | > 100 µM (inactive) | 70.1 µM (inactive) | > 100 µM (inactive) | > 100 µM (inactive) | – | > 100 µM (inactive) | > 100 µM (inactive) |
